Test results reported in patent US20240041899A1, “SOLID PREPARATION” (ASKA Pharmaceutical Co., Ltd., priority 2020, published 2024).

How the values were obtained:
Assay type in all cases: in vivo
[1] = tested on: rats having the urination disorder associated with diabetes; experiment: Test Example 6: urination disorder model associated with streptozocin-induced diabetes, compound A versus compound C; conditions: STZ diabetes model
Description: As described below, a model of a urination disorder associated with streptozocin-induced diabetes was prepared as a urination disorder model in accordance with Test Example 4 to evaluate the effects of the compound A and the compound C on a urination disorder. This model has no benign prostatic hyperplasia and is a model of a urination disorder associated with neuropathy and smooth muscle contraction disorder.
The body weights of Rats (male, Crl:CD(SD), 5-week-old; Charles River Laboratories Japan, Inc.) were measured. On the basis of the body weight, the rats were grouped or divided into two (2) groups. The day after the rats were grouped, a first group received intraperitoneal administration of a citrate buffer (pH 4.5) (10 mL/kg) having a concentration of 0.1 mmol/L, and a second group received intraperitoneal administration of streptozocin (STZ; Sigma-Aldrich) (50 mg/kg). Streptozocin (STZ) was administered in the form of a solution of streptozocin having a concentration of 5 mg/mL in the citrate buffer.
About one (1) week after streptozocin (STZ) was administered, the body weight and the fasting blood glucose were measured. In the streptozocin (STZ) administration group (the second group), individuals having a fasting blood glucose level of not less than 300 mg/dL were used as animals with induced diabetes. These animals with induced diabetes are a model having no abnormality of the prostate (having no benign prostatic hyperplasia). On the basis of the body weight and the fasting blood glucose level, the animals (models) with induced diabetes were grouped or divided into three (3) groups by randomized, multivariable block allocation.
To the three model groups with induced diabetes, a 0.5 v/v % Polysorbate 80 solution (0.5% P) (10 mL/kg), the compound A (3 mg/kg), and the compound C (dutasteride) (0.3 mg/kg) were orally administered, respectively, wherein the administration schedule in all groups was a frequency of once a day, only on weekdays, over four (4) weeks. Moreover, to the above-mentioned first group, a 0.5 v/v % Polysorbate 80 solution (0.5% P) (10 mL/kg) was orally administered in the same administration schedule (normal group). On the last day of administration, a cannula was inserted into and secured to the dome of the bladder under isoflurane anesthesia, and cystometry (Cystometogram, CMG) was conducted in the order of under awake condition and under urethane anesthesia to measure the intravesical pressure, the voided volume, and the residual urine volume. After the completion of the measurement, the blood was collected under deep isoflurane anesthesia, and then the prostate (ventral prostate, dorsolateral prostate) was extracted and each was weighed. Moreover, the blood glucose level in the collected blood was measured.
Normal group: citrate buffer 10 mL/kg (intraperitoneal administration), 0.5% P 10 mL/kg (oral administration) (n=10) • Solvent group (control group): STZ 50 mg/kg (intraperitoneal administration), 0.5% P 10 mL/kg (oral administration) (n=10) • Group A3: STZ 50 mg/kg (intraperitoneal administration), Compound A 3 mg/kg (oral administration) (n=10) • Group C0.3: STZ 50 mg/kg (intraperitoneal administration), Compound C (dutasteride) 0.3 mg/kg (oral administration) (n=10)
Urination parameter: In the same manner as in Test Example 4, the residual urine volume (mL) and the urination efficiency (%) were determined as urination parameters in each urination, and the average value of two measurements was taken as a measured value of each individual.
Prostate weight: In the same manner as in Test Example 4, the weight of the prostate (ventral prostate, dorsolateral prostate, and whole) was converted to a tissue weight per 100 g of the body weight. For Group A3, which received the compound A, and Group C0.3, which received the compound C, the inhibition rate of the weight of the prostate relative to the weight of the prostate in the solvent group was calculated (with one decimal place). […]

ovariectomized rats = experiment: Test Example 5: antiprogesterone activity, uterine weight associated with rat deciduoma formation; conditions: Rattus norvegicus, 192 h; ovariectomized rats, estrone + progesterone, oral 3 mg/kg once a day 8 days, compared with the solvent group; read-out: inhibition rate (increase of uterine weight, deciduoma formation)
Description: For the compound A and the compound D (mifepristone), the antiprogesterone activity was measured. Specifically, a sex hormone and a test substance were repeatedly administered to ovariectomized rats as a test system to examine the antiprogesterone action (antiprogesterone activity) based on, as an index, the fluctuation of the uterine weight (the inhibitory action relative to the increase of the weight) associated with rat deciduoma formation.
More specifically, rats (female, Crl:CD(SD), 5-week-old: Charles River Laboratories Japan, Inc.) were subjected to ovariectomy, and from one (1) week after the ovariectomy, a high dose estrone of 5 μg/one animal was hypodermically administered to the rats once a day for three (3) days. From the day after one day rest period, the rats received, once a day over eight (8) days, hypodermic administration of a low dose estrone (1 μg/one animal), intramuscular administration of progesterone (6 mg/kg), and oral administration of a test substance. In the middle of the administration, on Day 4 of the start of administration, the rats were subjected to a stimulation treatment of decidualization reaction to the right uterus. The day after the final administration, the uterine weight (right uterine body) was measured (n=6). Group E was subjected to ovariectomy and a stimulation treatment of decidualization reaction but was not subjected to a hormone treatment.
Group E: rats with ovariectomy without hormone treatment 0.5 v/v % Polysorbate 80 solution, 10 mL/kg (n=6) • Solvent group (control group): 0.5 v/v % Polysorbate 80 solution, 10 mL/kg (n=6) • Group A3: Compound A, 3 mg/kg (n=6) • Group A10: Compound A, 10 mg/kg (n=6) • Group A30: Compound A, 30 mg/kg (n=6) • Group D: Compound D (mifepristone), 3 mg/kg (n=6)

[2] = tested on: lower urinary tract obstruction model of rats (female); experiment: Test Example 1: urination function in lower urinary tract obstruction model of female rats; conditions: oral once a day 2 weeks, Compound B 3 mg/kg and 10 mg/kg
Text: A lower urinary tract obstruction model of rats was used as a test system. A test substance was orally administered to the lower urinary tract obstruction model repeatedly over two (2) weeks to examine the action on the urination function in the lower urinary tract obstruction model.
More specifically, the rats (female, Crl:CD(SD), 8-week-old; Charles River Laboratories Japan, Inc.) were operated to form lower urinary tract obstruction and repeatedly received oral administration of the test substance at a frequency of once a day over two (2) weeks. After the completion of the administration, each rat was subjected to bladder catheterization under anesthesia, cystometry under no anesthesia, then cystometry under urethane anesthesia, and euthanasia under deep anesthesia, and the tissues (bladder, kidney) of the rat were extracted or surgically removed. As a normal group, the rats without operation for forming lower urinary tract obstruction were used.
The test system, the test substances, and the dosage are as follows. • Normal group: 0.5 v/v % Polysorbate 80 solution, 10 mL/kg (n=6) • Solvent group (control group): 0.5 v/v % Polysorbate 80 solution, 10 mL/kg (n=15) • Group A: Compound A, 10 mg/kg (n=15) • Group B3: Compound B, 3 mg/kg (n=7) • Group B10: Compound B, 10 mg/kg (n=7)
After urination, the residual urine was aspirated from the outlet end of the catheter placed in the bladder to measure the volume (mL) of the residual urine.
After urination, the weight of the voided urine was measured to determine the voided volume (g=mL), and then the urination efficiency was calculated by the following equation: Urination efficiency (%)=[(Voided volume (mL))/(Voided volume (mL)+Residual urine volume (mL))]×100
Bladder capacity (mL)=Voided volume (mL)+Residual urine volume (mL)
Moreover, the wet weight of the extracted bladder and that of the extracted kidney were measured.

[3] = Compound C 0.3 mg/kg, in comparison with the solvent group
[4] = Compound C oral 0.3 mg/kg, 4 weeks
[5] = Compound C oral 0.3 mg/kg, relative to solvent group
[6] = female rats, lower urinary tract obstruction, vs control group

C[C@]12C=CC(=O)N[C@@H]1CC[C@@H]1[C@@H]2CC[C@]2(C)[C@@H](C(=O)Nc3cc(C(F)(F)F)ccc3C(F)(F)F)CC[C@@H]12 [Compound C, dutasteride, reference compound]
position in nomogram analysis (bladder contraction force) ([1]; Compound C 0.3 mg/kg): at almost the same position as the solvent group | therapeutic effect on diabetes ([1]; Compound C 0.3 mg/kg): no therapeutic effect | weights of the ventral prostate, the dorsolateral prostate, and the whole prostate ([1]; Compound C 0.3 mg/kg, compared with the solvent group (P<0.05)): significant decrease | residual urine volume, cystometry (CMG) under awake condition [1, 3]: did not statistically affect | urination efficiency, cystometry (CMG) under awake condition [1, 3]: did not statistically affect | effect on the blood glucose level ([1]; Compound C 0.3 mg/kg, vs solvent group): did not statistically affect | Prostate weight, ventral prostate ([1]; Compound C (dutasteride) oral 0.3 mg/kg, 4 weeks): 58.4 ± 8.4 mg/100 g body weight | Blood glucose level [1, 4]: 984.2 ± 282.0 mg/dL | Prostate weight, dorsolateral prostate [1, 4]: 40.5 ± 6.3 mg/100 g body weight | Prostate weight, whole [1, 4]: 98.9 ± 12.2 mg/100 g body weight | Dorsolateral prostate atrophy rate [1, 5]: (37.5%) | Ventral prostate atrophy rate [1, 5]: (42.7%) | Whole prostate atrophy rate [1, 5]: (40.7%)

CC#C[C@]1(O)CC[C@H]2[C@@H]3CCC4=CC(=O)CCC4=C3[C@@H](c3ccc(N(C)C)cc3)C[C@@]21C [Compound D, mifepristone, reference compound]
inhibition at 3 mg/kg (ovariectomized rats): 89.5%

CC(=O)O[C@]1(C(C)=O)CC[C@H]2[C@@H]3C=C(Cl)C4=CC(=O)OC[C@]4(C)[C@H]3CC[C@@]21C [Compound B, 17α-acetoxy-6-chloro-2-oxa-4,6-pregnadiene-3,20-dione, reference compound]
survival rate ([2]; female lower urinary tract obstruction rats): decreased | wet weights of the bladder and the kidney ([2]; female rats, lower urinary tract obstruction): rather in the direction of increasing | residual urine volume ([2]; female rats, lower urinary tract obstruction, vs control (solvent) group): significantly increased | bladder capacity [2, 6]: significantly increased | urination efficiency [2, 6]: reduced
